Test results: patent US10066025B2, “Compositions and methods for detecting, treating and preventing diseases and disorders” (YALE UNIVERSITY, priority 2012, dated 2018)
“Also recorded” adds a separate entry of the source.

Legend:
systemic blood pressure = assay: Blood pressure and heart rate in anesthetized mice; assay type: in vivo; conditions: for effect on systemic blood pressure: IV and subcutaneous administration, mice
Experimental: As in 14A, except that RP-H220 is injected; no significant changes in blood pressure (FIG. 14B). Effect of a single intravenous injection of RP-220 (squares) and RP-H220 (diamonds) on heart rate in wild type mice (FIG. 14C).
FIG. 21 depicts the results of experiments examining the effect of RP-220 injection on blood pressure. A single subcutaneous injection of RP-220 (n=3) or buffer (n=2) in anesthetized wild type mice; BP pressure is recorded continuously; RP-220 is given at time 0; each data point represents the mean pressure; the standard error of the means are shown.
Systolic and diastolic pressure and heart rate were measured in anesthetized mice as previously described (Desir et al., 2012, J Am Heart Assoc. 1:e002634).

HK-2 cells [1] = assay: HK-2 cell necrosis induced with 2 mM H2O2 (LDH release); assay type: cell-based, human; conditions: at 2 and 4 hrs
Experimental: (§1) HK2 cells (human proximal tubular line) obtained from ATTC (Manassas, Va., USA) were cultured in DMEM/F12 supplemented with glutamine, 10% FBS and antibiotics, and were maintained at 37° C. in 5% CO2. Cells were exposed to cisplatin (20 μM) in the presence or absence of renalase for 24 hrs, and cell viability was assessed by the WST1 method (Roche Applied Science, Germany). Cells were then harvested in RIPA buffer (20 mM Tris-HCl pH 7.5, 150 mM NaCl, 1 mM Na2EDTA, 1 mM EGTA, 1% NP-40, 1% sodium deoxycholate, 2.5 mM sodium pyrophosphate, 1 mM β-glycerophosphate, 1 mM Na3VO4, 1 μg/ml leupeptin) supplemented with a protease and phosphatase inhibitor cocktail (Roche Applied Science, Germany). Proteins were separated by SDS-PAGE and Western blotting was carried out using the following antibodies: anti-renalase monoclonal (Desir et al., 2012, J Am Heart Assoc. 1:e002634; (Lee et al., 2013, J Am Soc Nephrol 24:445-455); anti caspase 3 (Cell Signaling Technology, MA, USA) and anti Bcl2 (Thermo Scientific, USA). Necrotic injury in HK-2 cells (ATCC, Manassas, Va.) was induced with exposure to 2 mM H2O2 for 2-8 hr and lactate dehydrogenase (LDH) released into cell culture media was measured as described using a commercial LDH assay kit (Promega, Madison, Wis.) (Lee and Emala, 2002, American journal of physiology. Renal physiology 282:F844-852).

[2] = NADH / amine oxidase activity of renalase peptides; assay type: biochemical; conditions: 25 mM Tris, pH 7.5, 5 mM NaCl, 150 μM NADH, 37° C.
Experimental: Renalase isoforms Ren1-7; exons numbered from 1 to 10; RP-224: renalase peptide amino acid 224-233 of Ren1 or Ren2; RP-220; amino acids 220-239; RP-H220: histidine tagged RP-220; RP-Scr220: scrambled RP-220 (FIG. 19A). CCL-119 cells in culture treated with anti-renalase monoclonal antibody for 24 hrs; cell survival measured by the WST-1 method; n=3, *: P<0.05 (FIG. 19B). HK-2 cell treated with 2 mM H2O2 with and without renalase peptides for indicated time; LDH: lactate dehydrogenase; n=6, *: P<0.05 for Control vs. renalase peptide (FIG. 19C). HK-2 cells treated with 20 μM cisplatin with and without recombinant renalase and renalase peptides for 24 hrs, *: P<0.05, control vs. renalase peptide (FIG. 19D). Plasma creatinine levels from mice subjected to sham-surgery or to renal ischemia and reperfusion (IR); Renalase WT mice were subjected to sham-surgery or to 30 min renal IR. For mice subjected to renal IR, RP-H220 or vehicle (saline) was injected 10 min prior to renal ischemia.
Human recombinant renalase was synthesized as described (Desir et al., 2012, J Am Heart Assoc. 1:e002634). […] Renalase enzymatic activity was measured as previously described (Desir et al., 2012, J Am Heart Assoc. 1:e002634). Renalase expression was detected using an anti-renalase monoclonal antibody generated against the renalase peptide RP-220 (amino acid

HK-2 cells [3] = assay: HK-2 cell cisplatin toxicity (WST-1 viability, western blot); assay type: cell-based, human; conditions: 20 μM cisplatin, 24 hrs
Experimental: Cultured HK-2 cells were incubated with 20 μM cisplatin for 24 hours with and without recombinant renalase. Renalase expression was examined by Western blot and cell viability (mitochondrial integrity) was determined spectrophotometrically using WST-1, a tetrazolium salt that is cleaved, by mitochondrial dehydrogenases of metabolically active and viable cells, to formazan (420-480 nm) (Boehringer Mannheim, Germany).
as §1

With “RP H220: histidine tagged RP-220, SEQ ID NO: 4, HHHHHHCIRFVSIDNKKRNIESSEIG (listed as Homo sapiens)” the “effect on systemic blood pressure” value (systemic blood pressure) was “nor significant effect on systemic blood pressure; also recorded: no effect on BP”, the “effect on systemic blood pressure” value (systemic blood pressure; listed as RP-H220) was “neither intravenous nor subcutaneous injection of RP-H220 had any effect on blood pressure” and the heart rate (systemic blood pressure; anesthetized WT mice) was “did not change”. The “necrosis induced with 2 mM H2O2” value (HK-2 cells [1]) was “significantly reduced necrosis”, the “NADH or amine oxidase activity” value [2] was “no detectable NADH or amine oxidase activity; also recorded: neither detectable oxidase activity” and the “cell survival / protection against cisplatin toxicity” value (HK-2 cells [3]) was “improved HK-2 cell survival”.
